Test results reported in patent US10596094B2, “Compositions and methods for reducing skin pigmentation” (Yale University, priority 2013, dated 2020).

Tests used:
[1] = system: human melanocyte-keratinocyte co-cultures; experiment: EBL/SNA lectin staining of melanocyte-keratinocyte co-cultures; type: cell-based; conditions: L-cytidine 25 micromolar, 72 h, vs untreated (FIG. 5)
Experimental: Primary neonatal normal human keratinocytes (NHKs) (Invitrogen, Life Technologies, Grand Island, N.Y.) were seeded at a density of 5×10^5 cells/well into 4-well collagen coated chamber slides (Fisher Scientific, Waltham, Mass.). Cells were maintained in 1 ml of serum-free keratinocyte growth medium (KGM) (Keratinocyte-SFM, Invitrogen) and incubated for 48 h in 5% CO2 incubator. The complete KGM was prepared by adding KGM Singlequots (Lonza). Darkly pigmented human neonatal epidermal melanocytes (HEM-DP) (Invitrogen) were seeded over keratinocytes at 2.5×10^5 cells/well and incubated for 24 h at 37° C. The KGM was replaced with 1 ml of melanocyte growth medium (MGM) (Invitrogen), and the co-cultures were incubated for another 48 hours. The co-cultures were treated with the inhibitors at indicated concentrations in a final volume of 20 microliter/well in triplicate for 72 h. The cells were gently washed with 1× phosphate buffered saline (PBS) and fixed in 4% Paraformaldehyde (PFA) for 20 minutes at room temperature. […] The slides were air dried and mounted on cover slips and the images were captured in tiff format using fluorescence microscope (Nikon) and analyzed.

[2] = system: melanocyte-keratinocyte co-cultures; experiment: Fontana-Masson silver stain for melanin in melanocyte-keratinocyte co-cultures; type: cell-based, human; conditions: 50 micromolar, 72 h (FIG. 7)
Experimental: Primary neonatal normal human keratinocytes (NHKs) (Invitrogen, Life Technologies, Grand Island, N.Y.) were seeded at a density of 5×10^5 cells/well into 4-well collagen coated chamber slides (Fisher Scientific, Waltham, Mass.). Cells were maintained in 1 ml of serum-free keratinocyte growth medium (KGM) (Keratinocyte-SFM, Invitrogen) and incubated for 48 h in 5% CO2 incubator. The complete KGM was prepared by adding KGM Singlequots (Lonza). Darkly pigmented human neonatal epidermal melanocytes (HEM-DP) (Invitrogen) were seeded over keratinocytes at 2.5×10^5 cells/well and incubated for 24 h at 37° C. The KGM was replaced with 1 ml of melanocyte growth medium (MGM) (Invitrogen), and the co-cultures were incubated for another 48 hours. The co-cultures were treated with the inhibitors at indicated concentrations in a final volume of 20 microliter/well in triplicate for 72 h. The cells were gently washed with 1× phosphate buffered saline (PBS) and fixed in 4% Paraformaldehyde (PFA) for 20 minutes at room temperature.
Silver staining for melanin was performed according to the instructions provided with the Fontana-Masson staining kit (American MasterTech, Lodi, Calif.). Cells grown in collagen-coated chamber slides were fixed in 4% PFA and rinsed with water for 5 minutes to remove traces of PBS. Slides were then placed in ammonical silver solution followed by incubation in solutions of 0.1% gold chloride, 5% sodium thiosulfate, rinsed in running tap water to remove the staining solution, and dehydrated through 3 changes of fresh absolute alcohol. Cleared slides were rinsed through 3 changes of fresh xylene and coverslips were applied with mounting medium.

[3] = system: human melanocyte-keratinocyte co-cultures; experiment: Melanin assay (solubilized melanin, spectrophotometry) in melanocyte-keratinocyte co-cultures; type: cell-based; conditions: for Minimal concentration for >80% inhibition of melanin content: single agents, 72 h, data from FIG. 8A
Experimental: Cells were plated on 24-well plates at 2×10^5 cells/well and treated with various inhibitors in triplicate. Media were replaced with fresh inhibitor-containing media every 24 h. After 72 h, cells were lysed with cell lysis buffer (Invitrogen) containing protease inhibitor cocktail and PMSF (phenylmethyl sulfonyl fluoride) and incubated for 20 minutes on ice. […] From the same samples, the supernatants were saved for measurement of dopa oxidase activity and the pellets were evaluated for melanin content.
Melanin was extracted following a previously described procedure (Ni-Komatsu, et al., 2005, Pigment Cell Res 18(6),447-453). […] The melaninextracts (100 μl) were transferred to a 96-well plate and total melanin content quantitated with a M5 Spectramax plate reader (490 nm).
Dose response curves were assessed for Bliss Additivity and synergism as described (Fitzgerald et al., 2006, Nat Chem Biol 2:458-466; Ritz, C. & Streibig, J. C. (2005) Bioassay Analysis using R. J. Statist. Software, Vol 12, Issue 5). For comparisons of melanin content and tyrosinase/dopa oxidase activity in treated vs. untreated cultures, P-values were determined by the Welch Two Sample t-test.

[4] = molecular target: EBL/SNA (Sambucus nigra, UniProt Q41358); conditions: Shibuya et al, 1987; Kaku et al, 2007; cited from earlier work
Chain of EBL/SNA (Q41358 309-570 limits assumed): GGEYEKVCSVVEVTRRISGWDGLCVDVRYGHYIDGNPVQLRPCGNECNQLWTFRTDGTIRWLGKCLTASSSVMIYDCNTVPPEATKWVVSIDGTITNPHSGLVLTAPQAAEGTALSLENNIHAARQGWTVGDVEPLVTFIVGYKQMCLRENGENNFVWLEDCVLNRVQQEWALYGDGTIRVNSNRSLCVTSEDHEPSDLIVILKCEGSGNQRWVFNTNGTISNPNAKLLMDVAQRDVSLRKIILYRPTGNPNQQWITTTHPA
Chain of EBL/SNA (Q41358 29-289 partner limits assumed): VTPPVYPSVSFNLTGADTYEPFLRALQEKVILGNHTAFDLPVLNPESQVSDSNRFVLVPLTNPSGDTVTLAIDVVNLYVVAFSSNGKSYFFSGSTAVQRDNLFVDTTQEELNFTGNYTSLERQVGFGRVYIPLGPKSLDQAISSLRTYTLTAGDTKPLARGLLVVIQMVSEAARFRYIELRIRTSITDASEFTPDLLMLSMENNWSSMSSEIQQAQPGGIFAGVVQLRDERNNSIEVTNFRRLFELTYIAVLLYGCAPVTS

Molecule | EBL staining [1] | melanin content (Fontana-Masson silver staining) [2] | melanin content compared to untreated cultures ([3]; 50 micromolar, 72 h (FIG. 6)) | Minimal concentration for >80% inhibition of melanin content [3] | inhibition of EBL-mediated precipitation of glycophorin [4]
Nc1ccn([C@@H]2O[C@H](CO)[C@@H](O)[C@H]2O)c(=O)n1 [cytidine] | markedly reduced | reduced melanin content |  |  | 
Neu5Ac(α2,3)Gal(β1-4)Glc [3′-SL] |  | reduced melanin content | strongest reduction of the three | 30 µM | poor inhibitor
Neu5Ac(α2,6)Gal(β1-4)Glc [6′-SL] |  | reduced melanin content |  | 30 µM | strong inhibitor
